Literature values, collected in US20100120723A1, “PHARMACEUTICAL COMPOSITION COMPRISING A HOT-MELT GRANULATED LUBRICANT” (priority 2006, published 2010).

System: bone resorption
Settings: animal models of bone resorption

In the case of `CCCCCN(C)CCC(O)(P(=O)(O)O)P(=O)(O)O` [Sodium ibandronate], the “potency relative to alendronate, risedronate, pamidronate and clodronate” value is listed as “many times more potent”.
